Data as given in ChEMBL document CHEMBL1146061, “Novel, potent P2-P3 pyrrolidine derivatives of ketoamide-based cathepsin K inhibitors” (Bioorg Med Chem Lett, 2006).
In brackets after ≈: the same amount, converted by molar mass.

Assays:
Cathepsin K = target: T1, Cathepsin K (Homo sapiens, UniProt P43235); test: Inhibition of recombinant human cathepsin K by fluorescence assay
T1 sequence (P43235 whole entry): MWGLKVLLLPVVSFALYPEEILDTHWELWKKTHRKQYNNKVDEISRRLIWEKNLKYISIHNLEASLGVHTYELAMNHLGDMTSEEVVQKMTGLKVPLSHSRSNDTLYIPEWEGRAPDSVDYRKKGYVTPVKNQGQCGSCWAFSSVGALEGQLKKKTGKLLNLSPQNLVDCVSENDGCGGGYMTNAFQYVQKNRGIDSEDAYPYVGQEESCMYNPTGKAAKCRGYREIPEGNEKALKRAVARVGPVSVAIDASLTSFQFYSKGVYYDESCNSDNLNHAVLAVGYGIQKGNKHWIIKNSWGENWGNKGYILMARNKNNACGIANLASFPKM

[1] = Permeability in MDCK cell line; assay type: ADME, cell-based, Canis lupus familiaris; conditions: dog
[2] = Solubility in fasted state-simulated intestinal fluid at pH 6.8; assay type: physicochemical
[3] = Volume of distribution in Han Wistar rat; assay type: ADME, organism-based; conditions: in vivo, read-out: Vss
[4] = Half life in Han Wistar rat iv; assay type: ADME, organism-based; conditions: in vivo
[5] = Oral bioavailability in Han Wistar rat; assay type: ADME, organism-based; conditions: in vivo
[6] = Clearance in Han Wistar rat; assay type: ADME, organism-based; conditions: in vivo

Row | IC50 (Cathepsin K) [nM] | Papp [1] [×10⁻⁶ cm/s] | solubility [2] [µg/mL] | Vd [3] [L/kg] | half-life [4] [h] | bioavailability [5] [%] | clearance [6] [mL/min/kg] | Structure (SMILES)
1 | 2.8 |  |  |  |  |  |  | CCCC[C@H](NC(=O)O[C@@H]1C(=O)N(C(=O)c2cc3ccccc3s2)CC1(C)C)C(=O)C(=O)N[C@H](C)c1ccccc1
2 | 14 | 21 | 85 (≈ 163 µM) | 0.55 | 1.57 | 45 | 34 | CCCC[C@H](NC(=O)O[C@@H]1C(=O)N(C(=O)c2cccnc2)CC1(C)C)C(=O)C(=O)N[C@H](C)c1ccccc1
3 | 17 |  |  |  |  |  |  | CCCC[C@H](NC(=O)O[C@@H]1C(=O)N(S(=O)(=O)Cc2ccccc2)CC1(C)C)C(=O)C(=O)N[C@H](C)c1ccccc1
4 | 21 |  |  |  |  |  |  | CCCC[C@H](NC(=O)O[C@@H]1C(=O)N(Cc2ccccc2)CC1(C)C)C(=O)C(=O)N[C@H](C)c1ccccc1
5 | 3 | 41 | 68 (≈ 127 µM) | 1.5 | 1.05 | 29 | 26 | CCCC[C@H](NC(=O)O[C@@H]1C(=O)N(C(=O)Cc2ccccc2)CC1(C)C)C(=O)C(=O)N[C@H](C)c1ccccc1
6 | 0.42 | 1.8 | 140 (≈ 247 µM) | 2.6 | 1.25 | 26 | 77 | CCCC[C@H](NC(=O)O[C@@H]1C(=O)N(C(=O)Nc2ccc(C(F)(F)F)cc2)CC1(C)C)C(=O)C(=O)Nc1cc[nH]n1
7 | 1.6 |  |  |  |  |  |  | CCCC[C@H](NC(=O)O[C@@H]1C(=O)N(C(=O)c2ccc3ccccc3c2)CC1(C)C)C(=O)C(=O)N[C@H](C)c1ccccc1
8 | 65 |  |  |  |  |  |  | CCCC[C@H](NC(=O)O[C@@H]1C(=O)N(C(=O)c2ccccc2)CC1(C)C)C(=O)C(=O)N[C@H](C)c1ccccc1
9 | 16 |  |  |  |  |  |  | CCCC[C@H](NC(=O)O[C@@H]1C(=O)N(C(=O)N2CCOCC2)CC1(C)C)C(=O)C(=O)N[C@H](C)c1ccccc1
10 | 4.3 |  |  |  |  |  |  | CCCC[C@H](NC(=O)O[C@@H]1C(=O)N(C(=O)Nc2ccccc2)CC1(C)C)C(=O)C(=O)N[C@H](C)c1ccccc1
11 | 0.81 | 25 | 160 (≈ 296 µM) | 2.2 | 3 | 14 | 65 | CCCC[C@H](NC(=O)O[C@@H]1C(=O)N(C(=O)c2nc3ccccc3s2)CC1(C)C)C(=O)C(=O)Nc1ccn[nH]1
12 | 2.1 |  |  |  |  |  |  | CCCC[C@H](NC(=O)O[C@@H]1C(=O)N(C(=O)Nc2ccc(C(F)(F)F)cc2)CC1(C)C)C(=O)C(=O)N[C@H](C)c1ccccc1
13 | 6.6 |  |  |  |  |  |  | CCCC[C@H](NC(=O)O[C@@H]1C(=O)N(C(=O)NCCc2ccccc2)CC1(C)C)C(=O)C(=O)N[C@H](C)c1ccccc1
14 | 6.9 |  |  |  |  |  |  | CCCC[C@H](NC(=O)O[C@@H]1C(=O)N(C(=O)c2ccc(-c3ccccc3)cc2)CC1(C)C)C(=O)C(=O)N[C@H](C)c1ccccc1
15 | 15 | 1.2 | 320 (≈ 576 µM) | 1.4 | 0.583 | 8.8 | 83 | CCCC[C@H](NC(=O)O[C@@H]1C(=O)N(C(=O)Nc2c(C)noc2C)CC1(C)C)C(=O)C(=O)N[C@H](C)c1ccccc1
16 | 27 |  |  |  |  |  |  | CCCC[C@H](NC(=O)O[C@@H]1C(=O)N(C(=O)CCCc2ccccc2)CC1(C)C)C(=O)C(=O)N[C@H](C)c1ccccc1
17 | 3.8 | 21 | 53 (≈ 96.2 µM) | 1.4 | 1.02 | 21 | 32 | CCCC[C@H](NC(=O)O[C@@H]1C(=O)N(C(=O)NCc2ccccc2)CC1(C)C)C(=O)C(=O)N[C@H](C)c1ccccc1
18 | 1 | 12 |  | 3.3 | 1.35 | 13 | 79 | CCCC[C@H](NC(=O)O[C@@H]1C(=O)N(C(=O)c2nnc(C(F)(F)F)s2)CC1(C)C)C(=O)C(=O)Nc1cc[nH]n1
19 | 24 |  |  |  |  |  |  | CCCC[C@H](NC(=O)O[C@@H]1C(=O)N(C(=O)OCc2ccccc2)CC1(C)C)C(=O)C(=O)N[C@H](C)c1ccccc1
20 | 8.9 | 48 | 68 (≈ 133 µM) | 0.5 | 0.6 | 8.6 | 18 | CCCC[C@H](NC(=O)O[C@@H]1C(=O)N(C(=O)c2ccno2)CC1(C)C)C(=O)C(=O)N[C@H](C)c1ccccc1
21 | 32 |  |  |  |  |  |  | CCCC[C@H](NC(=O)O[C@@H]1C(=O)N(C(=O)OCCc2ccccc2)CC1(C)C)C(=O)C(=O)N[C@H](C)c1ccccc1
22 | 1.7 |  |  |  |  |  |  | CCCC[C@H](NC(=O)O[C@@H]1C(=O)N(C(=O)c2ccc3[nH]ccc3c2)CC1(C)C)C(=O)C(=O)N[C@H](C)c1ccccc1
23 | 2.1 |  |  |  |  |  |  | CCCC[C@H](NC(=O)O[C@@H]1C(=O)N(C(=O)OCc2ccc(-c3ccccc3)cc2)CC1(C)C)C(=O)C(=O)N[C@H](C)c1ccccc1
24 | 8.3 |  |  | 2.1 | 2.5 | 25 | 27 | CCCC[C@H](NC(=O)O[C@@H]1C(=O)N(S(=O)(=O)c2ccccc2)CC1(C)C)C(=O)C(=O)N[C@H](C)c1ccccc1

Row | Structure (SMILES) | IC50 (Cathepsin K) [nM] | Papp [1] [×10⁻⁶ cm/s] | solubility [2] [µg/mL] | Vd [3] [L/kg] | half-life [4] [h] | bioavailability [5] [%] | clearance [6] [mL/min/kg]
25 | CCCC[C@H](NC(=O)O[C@@H]1C(=O)N(C(=O)Oc2ccc3ccccc3c2)CC1(C)C)C(=O)C(=O)N[C@H](C)c1ccccc1 | 58 |  |  |  |  |  | 
26 | CCCC[C@H](NC(=O)O[C@@H]1C(=O)N(C(=O)Oc2ccc(-c3ccccc3)cc2)CC1(C)C)C(=O)C(=O)N[C@H](C)c1ccccc1 | 5 |  |  |  |  |  | 
27 | CCCC[C@H](NC(=O)O[C@@H]1C(=O)N(C(=O)Oc2ccccc2)CC1(C)C)C(=O)C(=O)N[C@H](C)c1ccccc1 | 29 |  |  |  |  |  | 
